Results reported in article PMC5526877, “Structure of Chorismate Mutase-like Domain of DAHPS from Bacillus subtilis Complexed with Novel Inhibitor Reveals Conformational Plasticity of Active Site” (Scientific Reports, 2017).
Where a name gives a salt, the structure may show the parent alone. Blank lines part the entries; values can stand above or below the molecule they belong to.

Experiments:
[1] = molecular target: T1, BsCM_2 (chorismate mutase type II N-terminal domain of DAHPS) (Bacillus subtilis, UniProt P39912); experiment: co-crystal structure at […] Å and ITC; also competitive enzyme inhibition (Ki […], IC50 […]); format: binding; parameters: gene aroA; N-terminal chorismate mutase-like domain of DAHPS (306 bp fragment), homodimer; settings: read-out: Dissociation constant, K D
[2] = molecular target: T1, BsCM_2 (chorismate mutase type II N-terminal domain of DAHPS); experiment: crystal structure at […] Å (citrate from crystallization buffer) and ITC; format: binding; parameters: gene aroA; N-terminal chorismate mutase-like domain of DAHPS (306 bp fragment), homodimer
[3] = molecular target: T1, BsCM_2 (chorismate mutase type II N-terminal domain of DAHPS); experiment: ITC; also Michaelis-Menten kinetics (Km […]); format: binding; parameters: gene aroA; N-terminal chorismate mutase-like domain of DAHPS (306 bp fragment); settings: read-out: Dissociation constant, K D
[4] = molecular target: the molecule itself; experiment: crystal structure; BsCM_2 co-crystallised with chlorogenic acid (1.8 Å, P21, two monomers per asymmetric unit) and with citrate from the buffer (1.9 Å, P1, four monomers per asymmetric unit); sitting drop, 1 M ammonium sulphate, 0.1 M potassium sodium tartrate, 0.1 M sodium citrate pH 5.8, 20 °C; dimer interface analysed with PISA

Molecule: O=C(O)CC(O)(CC(=O)O)C(=O)O [CIT, citrate]
Kd [2]: 600 µM

B1: Chorismate mutase type II-like N-terminal domain (AroQ class) of 3-deoxy-D-arabino-heptulosonate-7-phosphate synthase (DAHPS) from Bacillus subtilis (domain or fragment, Bacillus subtilis strain 3256)
chain: MSNTELELLRQKADELNLQILKLINERGNVVKEIGKAKEAQGVNRFDPVRERTMLNNIIENNDGPFENSTIQHIFKEIFKAGLELQEEDH
notes: the forward primer encodes MSNTEL from the start codon, the reverse primer encodes ...QEEDH followed by a stop codon; residues 1-88 are spoken of in the structures; strain 3256 may differ; also called BsCM_2; CM_2 domain; source: E. coli BL21 (DE3), pET28c/BsCM_2, purified (HisTrap Ni-NTA, Superdex 75 SEC)
stoichiometry N [4]: 2

Further lines, results first:

Kd [1]: 480 µM
Molecule: O=C(/C=C/c1ccc(O)c(O)c1)O[C@@H]1C[C@](O)(C(=O)O)C[C@@H](O)[C@H]1O [CGA, chlorogenic acid]

Kd [3]: 725 µM
Molecule: C=C(O[C@@H]1C=C(C(=O)O)C=C[C@H]1O)C(=O)O [chorismate]
